Legend:
[1] = tested on: mast cells in skin tissues; test: Skin histology, toluidine blue (TBO) staining, mast cell number; assay type: in vivo, mouse (female BALB/c); details: dorsal skin, DNCB group 56
Procedure: (§1) Female BALB/c mice (6-8 weeks old) provided by the Comparative Medicine Center of Yangzhou University were used in the experiment. All mice were housed under standard feeding conditions with a 12-hour light-dark cycle, and food and water were freely accessible to them. To establish the atopic dermatitis mouse model, the hair on the back of the mice was removed using a shaver and depilatory cream on Day 0 of the experiment. On Day 1 of the experiment, 100 μL of 20 g/L DNCB was applied to the back and 10 μL to the ear of each mouse to induce atopic dermatitis. On Day 5, 8 and 11 of the experiment, 100 μL of 5 g/L DNCB was applied to the back, 10 μL to the ear of each mouse every morning to challenge atopic dermatitis. The mice were euthanized 24 hours after the final challenge. […]

[2] = tested on: TSLP; test: qRT-PCR of TSLP mRNA in ear and dorsal skin of DNCB-induced AD mice; assay type: in vivo, mouse (female BALB/c); details: dorsal and ear skin tissues; 5 and 20 g/L topical, compared with DNCB group
Procedure: as §1
(§2) After all the mice were euthanized, an appropriate amount of ear and dorsal skin tissues was harvested. […] Real-time fluorescent quantitative PCR (qRT-PCR) was performed to specifically detect the expression of IL-1β, IL-4, IL-8 and TSLP.

[3] = prior studies by the inventors (Carbohydrate Polymers 2025, 347:122782; CN 114533756 A); cited from earlier work
[4] = tested on: IL-4; test: qRT-PCR of IL-4 mRNA in ear and dorsal skin of DNCB-induced AD mice; assay type: in vivo, mouse (female BALB/c); details: dorsal and ear skin tissues; 5 and 20 g/L topical, compared with DNCB group
Procedure: as §1, §2

[5] = tested on: IL-1β; test: qRT-PCR of IL-1β mRNA in ear and dorsal skin of DNCB-induced AD mice; assay type: in vivo, mouse (female BALB/c); details: dorsal and ear skin tissues; 5 and 20 g/L topical, compared with DNCB group
Procedure: as §1, §2

[6] = tested on: DNCB-induced AD mice; test: Ear and dorsal skin thickness in DNCB-induced AD mice; assay type: in vivo, mouse (female BALB/c); details: for average ear skin thickness: DNCB group 0.44; for average dorsal skin thickness: DNCB group 785
Procedure: (§3) Female BALB/c mice (6-8 weeks old) provided by the Comparative Medicine Center of Yangzhou University were used in the experiment. All mice were housed under standard feeding conditions with a 12-hour light-dark cycle, and food and water were freely accessible to them. To establish the atopic dermatitis mouse model, the hair on the back of the mice was removed using a shaver and depilatory cream on Day 0 of the experiment. On Day 1 of the experiment, 100 μL of 20 g/L DNCB was applied to the back and 10 μL to the ear of each mouse to induce atopic dermatitis. On Day 5, 8 and 11 of the experiment, 100 μL of 5 g/L DNCB was applied to the back, 10 μL to the ear of each mouse every morning to challenge atopic dermatitis. The mice were euthanized 24 hours after the final challenge.
(§4) 5 days after the establishment of the atopic dermatitis model, the mice were randomly divided into 4 groups (6 mice per group): a) normal control group (Ctrl group); b) model group (DNCB group), where 100 μL of normal saline was applied to the back and 10 μL to the ear of each mouse every day; c) low-dose group (DNCB+LSRO group), where 100 μL of 5 g/L aqueous solution of sulfated gluco-galactooligosaccharide was applied to the back of each mouse every day, and 10 μL of 5 g/L aqueous solution of sulfated gluco-galactooligosaccharide was applied to the ear of each mouse every day; and d) high-dose group (DNCB+HSRO group), where 100 μL of 20 g/L aqueous solution of sulfated gluco-galactooligosaccharide was applied to the back of each mouse every day, and 10 μL of 20 g/L aqueous solution of sulfated gluco-galactooligosaccharide was applied to the ear of each mouse every day. The skin condition of the mice was recorded daily.
The ear thickness was accurately measured every day using an electronic caliper. Before the mice were euthanized, the thickness of the dorsal skin was measured with a caliper. Three measurements were taken at different positions on the mid-back, near the neck, and near the tail, and the average value was taken as the final measurement result.

[7] = tested on: IL-4; test: Determination of IL-4 in serum (ELISA) of DNCB-induced AD mice; assay type: in vivo, mouse (female BALB/c); details: DNCB group 253.5
Procedure: as §1
(§5) Before euthanasia, the mice were anesthetized, and blood samples were collected from the orbit. The blood samples of the mice in each group were analyzed using a fully automatic hematology analyzer. […] The levels of IgE and IL-4 were measured using a double-antibody sandwich enzyme-linked immunosorbent assay, according to the manufacturer's instructions.

[8] = Body weight in DNCB-induced AD mice; assay type: in vivo, mouse (female BALB/c); details: different-dose treatment groups (5 and 20 g/L topical); DNCB group decreased significantly
Procedure: as §1
(§6) The skin of the mice was photographed at the same time every day to record the skin condition, and the body weight of the mice was measured.

[9] = tested on: DNCB-induced AD mice; test: Dorsal skin inflammatory lesions (daily photographs) in DNCB-induced AD mice; assay type: in vivo, mouse (female BALB/c); details: treatment groups (5 and 20 g/L topical) compared with DNCB group
Procedure: as §1, §6

[10] = tested on: HaCaT cells stimulated by TNF-α/IFN-γ; test: mRNA expression of inflammatory cytokines in HaCaT cells stimulated by TNF-α/IFN-γ; assay type: cell-based, human; details: TNF-α/IFN-γ 10 ng/ml 18 h, then 100 or 200 μg/mL for 6 h
Procedure: HaCaT cells were used in the experiment, and their culture was carried out in high-glucose DMEM medium containing 10% fetal bovine serum, 1% streptomycin, and 1% erythromycin. The cells were incubated in a carbon dioxide incubator at 37° C. and passaged using trypsin digestion.
• 1) HaCaT cells were uniformly seeded in 6-well plates at a density of 5×10^5 cells per well. Control group and experimental groups were set up, namely the Ctrl group, TNF-α+IFN-γ group, LSRO+TNF-α+IFN-γ group and HSRO+TNF-α+IFN-γ group. • 2) TNF-α/IFN-γ (10 ng/ml) was added to the TNF-α+IFN-γ, LSRO+TNF-α+IFN-γ and HSRO+TNF-α+IFN-γ groups, respectively, while an equal volume of PBS solution (pH=7.2) was added to the Ctrl group. The plates were shaken crosswise to mix thoroughly, followed by incubation at 37° C. for 18 h in a carbon dioxide incubator. • 3) PBS, PBS, 100 μg/mL and 200 μg/mL sulfated gluco-galactooligosaccharide were added to the Ctrl, TNF-α+IFN-γ, LSRO+TNF-α+IFN-γ and HSRO+TNF-α+IFN-γ groups, respectively. The 6-well plates were placed in a carbon dioxide incubator at 37° C., and the cells were harvested after 6 h of incubation.
HaCaT cells were harvested, followed by RNA extraction and reverse transcription into cDNA. The expression levels of related genes such as IL-4, IL-6 and TNF-α were detected via fluorescent quantitative PCR. […]

[11] = tested on: DNCB-induced AD mice; test: Weight of spleens and lymph nodes in DNCB-induced AD mice; assay type: in vivo, mouse (female BALB/c); details: for average weight of the lymph nodes: DNCB group 16.4; for average weight of the spleen: DNCB group 221
Procedure: as §3, §4
After the mice were euthanized, the spleens and lymph nodes of the mice in each group were harvested and weighed.

[12] = tested on: DNCB-induced AD mice; test: Scratching behavior test in DNCB-induced AD mice; assay type: in vivo, mouse (female BALB/c); details: DNCB group 107
Procedure: as §1
Prior to the start of the experiment, the mice were allowed to acclimatize to the cages for 1 hour to ensure they could relax and display normal behavioral patterns. During this period, the behavior of the mice scratching the skin of their neck, ears and back with their paws was closely observed and recorded.

[13] = tested on: IgE; test: Determination of IgE in serum (ELISA) of DNCB-induced AD mice; assay type: in vivo, mouse (female BALB/c); details: DNCB group 12.65
Procedure: as §1, §5

[14] = tested on: IL-8; test: qRT-PCR of IL-8 mRNA in ear and dorsal skin of DNCB-induced AD mice; assay type: in vivo, mouse (female BALB/c); details: dorsal and ear skin tissues; 5 and 20 g/L topical, compared with DNCB group
Procedure: as §1, §2

[15] = tested on: DNCB-induced AD mice; test: Skin histology, H&E staining, in DNCB-induced AD mice; assay type: in vivo, mouse (female BALB/c); details: treatment groups (5 and 20 g/L topical) compared with DNCB group
Procedure: as §1

[16] = DNCB+HSRO group, 20 g/L topical daily
[17] = DNCB+LSRO group, 5 g/L topical daily

sulfated gluco-galactooligosaccharide
average number of mast cells [1, 16]: 26
average number of mast cells [1, 17]: 32
mRNA level of TSLP [2]: significantly decreased in a dose-dependent manner
anticoagulant activity [3]: has anticoagulant activity
mRNA level of IL-4 [4]: significantly decreased in a dose-dependent manner
mRNA level of IL-1β [5]: significantly decreased in a dose-dependent manner
average ear skin thickness [6, 16]: 0.33 mm
average dorsal skin thickness [6, 16]: 545 μm
average ear skin thickness [6, 17]: 0.375 mm
average dorsal skin thickness [6, 17]: 606 μm
average level of IL-4 in serum [7, 16]: 201 pg/mL
average level of IL-4 in serum [7, 17]: 232 pg/mL
DNCB-induced weight loss (body weight) [8]: not obvious
dorsal skin inflammatory lesions (dryness, erythema, erosion, edema) [9]: effectively alleviated these symptoms
mRNA expression of inflammatory cytokines (IL-4, IL-6, TNF-α) [10]: significantly inhibit the elevation of inflammatory cytokines induced by TNF-α/IFN-γ
average weight of the lymph nodes [11, 16]: 9.45 mg
average weight of the spleen [11, 16]: 165 mg
average weight of the lymph nodes [11, 17]: 10.3 mg
average weight of the spleen [11, 17]: 183 mg
average scratching frequency ([12]; DNCB+HSRO group, 20 g/L aqueous solution topical daily (100 μL back, 10 μL ear)): 58 times
average scratching frequency ([12]; DNCB+LSRO group, 5 g/L aqueous solution topical daily (100 μL back, 10 μL ear)): 76 times
average level of IgE in serum [13, 16]: 10.01 µg/mL
average level of IgE in serum [13, 17]: 10.45 µg/mL
mRNA level of IL-8 [14]: significantly decreased in a dose-dependent manner
H&E staining of ear and dorsal skin (epidermal hyperplasia, hyperkeratosis, inflammatory cell infiltration) [15]: maintained the skin structure integrity, alleviated skin lesions and protected skin tissues from damage

Reference: patent US20260284100A1, “USE OF SULFATED GLUCO-GALACTOOLIGOSACCHARIDE IN PREPARATION OF DRUGS FOR TREATING ATOPIC DERMATITIS” (Nanjing University of Science and Technology, priority 2025, published 2026)
